From PubChem BioAssay AID2060909 (Molecular Pharmacology Branch, DTP, NCI, 2025)
Each block holds one compound with its values, some of them ahead of it.

System: 362531-283-R-J2-PDC complex spheroid viability
Assay: Anticancer human tumor 362531-283-R-J2-PDC patient-derived colon adenocarcinoma cell line growth inhibition [RAS]
Settings: for IC50: curve of first compound; for viability, T/C: stronger effect = lower value
Method in brief: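 Multi-cell-type spheroids: tumor cells plus HUVEC endothelial cells and mesenchymal stem cells. RAS-pathway inhibitors were combined with targeted agents, each dosed in half-log steps down from clinical Cmax, or from 10 microM when Cmax was unknown.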

[1] = second compound 0.0316 µM, first compound 0.0316 µM
[2] = second compound 0.0316 µM, first compound 0.1 µM
[3] = second compound 0.0316 µM, first compound 0.316 µM
[4] = second compound 0.0316 µM, first compound 1 µM
[5] = second compound 0.0316 µM, first compound 3.16 µM
[6] = second compound 0.0316 µM, first compound 10 µM
[7] = second compound 0.1 µM, first compound 0.0316 µM
[8] = second compound 0.1 µM, first compound 0.1 µM
[9] = second compound 0.1 µM, first compound 0.316 µM
[10] = second compound 0.1 µM, first compound 1 µM
[11] = second compound 0.1 µM, first compound 3.16 µM
[12] = second compound 0.1 µM, first compound 10 µM
[13] = second compound 0.316 µM, first compound 0.0316 µM
[14] = second compound 0.316 µM, first compound 0.1 µM
[15] = second compound 0.316 µM, first compound 0.316 µM
[16] = second compound 0.316 µM, first compound 1 µM
[17] = second compound 0.316 µM, first compound 3.16 µM
[18] = second compound 0.316 µM, first compound 10 µM
[19] = second compound 1 µM, first compound 0.0316 µM
[20] = second compound 1 µM, first compound 0.1 µM
[21] = second compound 1 µM, first compound 0.316 µM
[22] = second compound 1 µM, first compound 1 µM
[23] = second compound 1 µM, first compound 3.16 µM
[24] = second compound 1 µM, first compound 10 µM
[25] = second compound 3.16 µM, first compound 0.0316 µM
[26] = second compound 3.16 µM, first compound 0.1 µM
[27] = second compound 3.16 µM, first compound 0.316 µM
[28] = second compound 3.16 µM, first compound 1 µM
[29] = second compound 3.16 µM, first compound 3.16 µM
[30] = second compound 3.16 µM, first compound 10 µM
[31] = second compound 10 µM, first compound 0.0316 µM
[32] = second compound 10 µM, first compound 0.1 µM
[33] = second compound 10 µM, first compound 0.316 µM
[34] = second compound 10 µM, first compound 1 µM
[35] = second compound 10 µM, first compound 3.16 µM
[36] = second compound 10 µM, first compound 10 µM
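Also: spheroids exposed to the agents for 7 days before readout.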
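For viability, T/C in this document: luminescence viability as percent of DMSO vehicle control wells.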

- IC50 (second compound 0.0316 µM): 169 nM
- IC50 (second compound 0.1 µM): 170 nM
- IC50 (second compound 0.316 µM): 140 nM
- IC50 (second compound 1 µM): 103 nM
- IC50 (second compound 3.16 µM): 54.3 nM
- IC50 (second compound 10 µM): < 31.6 nM
Compound: CC(=O)OC12COC1CC(O)C1(C)C(=O)C(O)C3=C(C)C(OC(=O)C(O)C(NC(=O)OC(C)(C)C)c4ccccc4)CC(O)(C(OC(=O)c4ccccc4)C21)C3(C)C (centres undefined) + C#Cc1c(F)ccc2cc(O)cc(-c3ncc4c(N5CC6CCC(C5)N6)nc(OCC56CCCN5CC(F)C6)nc4c3F)c12
- viability, T/C [1]: 83.2%
- viability, T/C [2]: 76.4%
- viability, T/C [3]: 18.4%
- viability, T/C [4]: 14%
- viability, T/C [5]: 14.6%
- viability, T/C [6]: 18.5%
- viability, T/C [7]: 81.9%
- viability, T/C [8]: 80.5%
- viability, T/C [9]: 13.6%
- viability, T/C [10]: 13.6%
- viability, T/C [11]: 13.4%
- viability, T/C [12]: 15.5%
- viability, T/C [13]: 90.9%
- viability, T/C [14]: 64.4%
- viability, T/C [15]: 15.1%
- viability, T/C [16]: 11.7%
- viability, T/C [17]: 12.9%
- viability, T/C [18]: 11.8%
- viability, T/C [19]: 81.2%
- viability, T/C [20]: 50.8%
- viability, T/C [21]: 13.6%
- viability, T/C [22]: 14.6%
- viability, T/C [23]: 13.6%
- viability, T/C [24]: 13.1%
- viability, T/C [25]: 65.6%
- viability, T/C [26]: 32.4%
- viability, T/C [27]: 14.2%
- viability, T/C [28]: 15%
- viability, T/C [29]: 13.5%
- viability, T/C [30]: 13.5%
- viability, T/C [31]: 32.3%
- viability, T/C [32]: 15.6%
- viability, T/C [33]: 13.5%
- viability, T/C [34]: 15.1%
- viability, T/C [35]: 13.6%
- viability, T/C [36]: 12.5%

- IC50 (second compound 0.0316 µM): 354 nM
- IC50 (second compound 0.1 µM): 175 nM
- IC50 (second compound 0.316 µM): 75.2 nM
- IC50 (second compound 1 µM): 35.8 nM
- IC50 (second compound 3.16 µM): < 31.6 nM
- IC50 (second compound 10 µM): < 31.6 nM
Compound: NC1c2ccccc2OC12CCN(c1cnc3c(N4CCCc5ncccc54)n[nH]c3n1)CC2 (centres undefined) + C#Cc1c(F)ccc2cc(O)cc(-c3ncc4c(N5CC6CCC(C5)N6)nc(OCC56CCCN5CC(F)C6)nc4c3F)c12
- viability, T/C [1]: 98.7%
- viability, T/C [2]: 73.2%
- viability, T/C [3]: 60.9%
- viability, T/C [4]: 10.6%
- viability, T/C [5]: 5.23%
- viability, T/C [6]: 1.84%
- viability, T/C [7]: 79.7%
- viability, T/C [8]: 78.1%
- viability, T/C [9]: 20.7%
- viability, T/C [10]: 7.72%
- viability, T/C [11]: 6.1%
- viability, T/C [12]: 1.33%
- viability, T/C [13]: 84.2%
- viability, T/C [14]: 38.8%
- viability, T/C [15]: 9.03%
- viability, T/C [16]: 6.67%
- viability, T/C [17]: 5.3%
- viability, T/C [18]: 1.76%
- viability, T/C [19]: 54.7%
- viability, T/C [20]: 12.8%
- viability, T/C [21]: 10.8%
- viability, T/C [22]: 6.95%
- viability, T/C [23]: 5.9%
- viability, T/C [24]: 1.83%
- viability, T/C [25]: 25.5%
- viability, T/C [26]: 9.78%
- viability, T/C [27]: 9.64%
- viability, T/C [28]: 6.45%
- viability, T/C [29]: 5.47%
- viability, T/C [30]: 1.34%
- viability, T/C [31]: 11.1%
- viability, T/C [32]: 6.83%
- viability, T/C [33]: 5.98%
- viability, T/C [34]: 5.62%
- viability, T/C [35]: 2.9%
- viability, T/C [36]: 1.51%
